From paper PMC10518257 (Nature Cancer, 2023)
Where “and” joins values, the source holds several entries; their conditions need not be identical. Equal values may be shown once. Read-outs that look alike come from different tables or passages of the source.

Tests used:
[1] = Pharmacokinetic analysis of vepafestinib in rats (microdialysis PFC, CSF, plasma); assay type: in vivo, male Han Wistar rats; conditions: for concentration at 480 min: read-out: Concentration in Cerebrospinal fluid
LC-2/ad NSCLC xenograft = assay: Subcutaneous xenograft efficacy study; assay type: in vivo, BALB/c nude mice
[2] = tested on: phospho-RET and phospho-ERK in Ba/F3 KIF5B–RET^WT tumors; assay: Western blotting of tumors after a single dose (target engagement); assay type: in vivo, mice; conditions: single dose 50 mg per kg
[3] = tested on: RET phosphorylation at Y905 and Y1062 and downstream effectors; assay: Western blotting of serum-starved LUAD-0002AS1, ECLC5B and TT cells, 2 h; assay type: cell-based, human; conditions: 50 nM
Description: Serum-starved cells were treated with 5, 50 or 500 nM inhibitor for 2 h, and then protein phosphorylation levels were examined (Fig. 3a). […] We performed additional dose–response western blotting studies using lower inhibitor concentrations. Immunoblots were quantitated by densitometry, and the EC50 for phosphorylation inhibition was estimated (Extended Data Fig. 4). […] Quantitation of immunoblots is shown in Extended Data Fig. 4c,d.
Following treatment, whole-cell extracts were prepared and subjected to western blotting analysis. Representative immunoblots from two independent experiments are shown. GAPDH was used as a loading control. RSK, ribosomal protein S6 kinase; S6RP, S6 ribosomal protein. b,c, Cells were plated in 96-well plates and treated for 96 h with the inhibitors shown. The number of viable cells was assessed using alamarBlue. b, Viability curves for control HBEC cells (HBECp53-EV) and HBEC cells with the CCDC6-RET fusion (HBECp53-RET) are shown at the left. […] Data were analyzed by non-linear regression, and IC50 values were estimated by curve fitting. […]
See Supplementary Table 4 for a complete list of antibodies and dilutions used. […] The bands of the target proteins were detected with SuperSignal West Dura Extended Duration Substrate (Thermo Fisher Scientific) by the Amersham Imager 600 QC (Cytiva) or exposed to X-ray film and visualized using a Kodak X-ray developer.

## COCc1ccc(NC(=O)c2c(C#CCN3CCOCC3)n(C3(C)CC3)c3ncnc(N)c23)cc1 [Vepafestinib, 4-amino-N-[4-(methoxymethyl)phenyl]-7-(1-methylcyclopropyl)-6-[3-(morpholin-4-yl)prop-1-yn-1-yl]-7H-pyrrolo[2,3-d]pyrimidine-5-carboxamide]
[1]; male, Han Wistar, rat, prefrontal cortex microdialysate, oral, 3 mg/kg, 150 min, individual rats
  concentration at 150 min: 101 nM
[1]; male, Han Wistar, rat, prefrontal cortex microdialysate, oral, 10 mg/kg, 30 min, individual rats, read-out: Concentration in Rats, Prefrontal cortex
  concentration at 30 min: 17.5 nM
[1]; male, Han Wistar, rat, prefrontal cortex microdialysate, oral, 10 mg/kg, 60 min, individual rats, read-out: Concentration in Rats, Prefrontal cortex
  concentration at 60 min: 362 nM
[1]; male, Han Wistar, rat, prefrontal cortex microdialysate, oral, 10 mg/kg, 90 min, individual rats
  concentration at 90 min: 514 nM
[1]; male, Han Wistar, rat, prefrontal cortex microdialysate, oral, 10 mg/kg, 120 min, individual rats, read-out: Concentration in Rats, Prefrontal cortex
  concentration at 120 min: 479 nM
[1]; male, Han Wistar, rat, prefrontal cortex microdialysate, oral, 10 mg/kg, 150 min, individual rats
  concentration at 150 min: 270 nM
[1]; male, Han Wistar, rat, prefrontal cortex microdialysate, oral, 10 mg/kg, 180 min, individual rats, read-out: Concentration in Rats, Prefrontal cortex
  concentration at 180 min: 259 nM
[1]; male, Han Wistar, rat, prefrontal cortex microdialysate, oral, 50 mg/kg, rats, 50 mg/kg, 120 min, individual animals, read-out: Concentration in Prefrontal cortex
  concentration at 120 min: 972 nM
[1]; male, Han Wistar, rat, prefrontal cortex microdialysate, oral, 50 mg/kg, rats, 50 mg/kg, 1500 min, individual animals, read-out: Concentration in Prefrontal cortex
  concentration at 1500 min: 71.6 nM
[1]; male, Han Wistar, rat, prefrontal cortex microdialysate, oral, 50 mg/kg, 120 min, individual rats, read-out: Concentration in Rats, Prefrontal cortex
  concentration at 120 min: 972 nM
[1]; male, Han Wistar, rat, prefrontal cortex microdialysate, oral, 50 mg/kg, 1500 min, individual rats, read-out: Concentration in Rats, Prefrontal cortex
  concentration at 1500 min: 71.6 nM
[1]; rats, 50 mg/kg, 30 min, individual animals, 50 mg/kg
  concentration at 480 min: 1290 nM and 1440 nM and 2760 nM and 1580 nM
[1]; rats, 50 mg/kg, 30 min, individual animals, 50 mg/kg, read-out: Concentration in Plasma (total)
  concentration at 60 min: 15700 nM and 13100 nM and 11800 nM
[1]; rats, 50 mg/kg, 30 min, individual animals, 50 mg/kg, read-out: Concentration in Prefrontal cortex
  concentration at 1500 min: 30.2 nM and 10.2 nM and 22.2 nM and 39.9 nM
[1]; rats, 50 mg/kg, 60 min, individual animals, 50 mg/kg
  concentration at 480 min: 648 nM and 1420 nM and 2370 nM and 1210 nM
[1]; rats, 50 mg/kg, 60 min, individual animals, 50 mg/kg, read-out: Concentration in Plasma (total)
  concentration at 60 min: 11900 nM and 11400 nM and 11800 nM
[1]; rats, 50 mg/kg, 60 min, individual animals, 50 mg/kg, read-out: Concentration in Prefrontal cortex
  concentration at 1500 min: 883 nM and 396 nM and 691 nM and 1135 nM
[1]; rats, 50 mg/kg, 90 min, individual animals, 50 mg/kg, read-out: Concentration in Prefrontal cortex
  concentration at 1500 min: 1549 nM and 742 nM and 1277 nM and 1593 nM
[1]; rats, 50 mg/kg, 120 min, individual animals, 50 mg/kg
  concentration at 480 min: 1780 nM and 1160 nM and 2340 nM and 756 nM
[1]; rats, 50 mg/kg, 120 min, individual animals, 50 mg/kg, read-out: Concentration in Plasma (total)
  concentration at 60 min: 16400 nM and 8330 nM and 13200 nM
[1]; rats, 50 mg/kg, 120 min, individual animals, 50 mg/kg, read-out: Concentration in Prefrontal cortex
  concentration at 1500 min: 1089 nM and 1363 nM and 1680 nM
[1]; rats, 50 mg/kg, 150 min, individual animals, 50 mg/kg, read-out: Concentration in Prefrontal cortex
  concentration at 1500 min: 804 nM and 1293 nM and 1118 nM and 1680 nM
[1]; rats, 50 mg/kg, 180 min, individual animals, 50 mg/kg, read-out: Concentration in Plasma (total)
  concentration at 60 min: 6200 nM and 14400 nM and 6310 nM and 8540 nM
[1]; rats, 50 mg/kg, 180 min, individual animals, 50 mg/kg, read-out: Concentration in Prefrontal cortex
  concentration at 1500 min: 761 nM and 1438 nM and 957 nM and 2162 nM
[1]; rats, 50 mg/kg, 210 min, individual animals, 50 mg/kg, read-out: Concentration in Prefrontal cortex
  concentration at 1500 min: 555 nM and 1724 nM and 852 nM and 1666 nM
[1]; rats, 50 mg/kg, 240 min, individual animals, 50 mg/kg
  concentration at 480 min: 1730 nM and 963 nM and 1170 nM and 522 nM
[1]; rats, 50 mg/kg, 240 min, individual animals, 50 mg/kg, read-out: Concentration in Plasma (total)
  concentration at 60 min: 3870 nM and 13700 nM and 7630 nM and 7250 nM
[1]; rats, 50 mg/kg, 240 min, individual animals, 50 mg/kg, read-out: Concentration in Prefrontal cortex
  concentration at 1500 min: 463 nM and 1651 nM and 722 nM and 1680 nM
[1]; rats, 50 mg/kg, 270 min, individual animals, 50 mg/kg, read-out: Concentration in Prefrontal cortex
  concentration at 1500 min: 359 nM and 1856 nM and 877 nM and 1281 nM
[1]; rats, 50 mg/kg, 300 min, individual animals, 50 mg/kg, read-out: Concentration in Plasma (total)
  concentration at 60 min: 4840 nM and 9390 nM and 5350 nM and 4540 nM
[1]; rats, 50 mg/kg, 360 min, individual animals, 50 mg/kg, read-out: Concentration in Plasma (total)
  concentration at 60 min: 5830 nM and 7730 nM and 5370 nM and 2620 nM
[1]; rats, 50 mg/kg, 480 min, individual animals, 50 mg/kg
  concentration at 480 min: 435 nM and 486 nM and 321 nM
[1]; rats, 50 mg/kg, 480 min, individual animals, 50 mg/kg, read-out: Concentration in Plasma (total)
  concentration at 60 min: 134 nM and 4450 nM and 4860 nM and 4260 nM
[1]; rats, 50 mg/kg, 1500 min, individual animals, 50 mg/kg, read-out: Concentration in Prefrontal cortex
  concentration at 1500 min: 123 nM
LC-2/ad NSCLC xenograft; 25 mg/kg BID, day 0
  Tumor Volume (mm3) Mean: 143.372 mm3
LC-2/ad NSCLC xenograft; 25 mg/kg BID, day 4
  Tumor Volume (mm3) Mean: 128.076 mm3
LC-2/ad NSCLC xenograft; 25 mg/kg BID, day 8
  Tumor Volume (mm3) Mean: 127.413 mm3
LC-2/ad NSCLC xenograft; 25 mg/kg BID, day 11
  Tumor Volume (mm3) Mean: 123.160 mm3
LC-2/ad NSCLC xenograft; 25 mg/kg BID, day 15
  Tumor Volume (mm3) Mean: 151.811 mm3
LC-2/ad NSCLC xenograft; 50 mg/kg BID, day 0
  Tumor Volume (mm3) Mean: 140.580 mm3
LC-2/ad NSCLC xenograft; 50 mg/kg BID, day 4
  Tumor Volume (mm3) Mean: 117.460 mm3
LC-2/ad NSCLC xenograft; 50 mg/kg BID, day 8
  Tumor Volume (mm3) Mean: 119.902 mm3
LC-2/ad NSCLC xenograft; 50 mg/kg BID, day 11
  Tumor Volume (mm3) Mean: 105.200 mm3
LC-2/ad NSCLC xenograft; 50 mg/kg BID, day 15
  Tumor Volume (mm3) Mean: 98.169 mm3
LC-2/ad NSCLC xenograft; 50 mg/kg QD, day 0
  Tumor Volume (mm3) Mean: 140.683 mm3
LC-2/ad NSCLC xenograft; 50 mg/kg QD, day 4
  Tumor Volume (mm3) Mean: 139.893 mm3
LC-2/ad NSCLC xenograft; 50 mg/kg QD, day 8
  Tumor Volume (mm3) Mean: 112.730 mm3
LC-2/ad NSCLC xenograft; 50 mg/kg QD, day 11
  Tumor Volume (mm3) Mean: 118.521 mm3
LC-2/ad NSCLC xenograft; 50 mg/kg QD, day 15
  Tumor Volume (mm3) Mean: 131.887 mm3
[2]
  duration of complete inhibition of phospho-RET and phospho-ERK in tumors: at least 8 h
[3]
  inhibition of phosphorylation of RET and downstream effectors: Near-complete inhibition
